From PMC3639963, “A New Class of Small Molecule Inhibitor of BMP Signaling” (PLoS ONE, 2013) come the findings set out here.

Assay in all cases: DSF thermal shift
Type in all cases: binding
Details in all cases: 10 µM inhibitor; read-out: Tm shift

The target in one assay is T1, MST4 (Homo sapiens, UniProt Q9P289).
T1 construct: purchased Nanosyn (enzymatic panel); SGC in-house recombinant human kinases (DSF panel); Invitrogen (ALK1-6)
As for the experimental part: (§1) Thermal melting experiments were performed using a Real Time PCR machine Mx3005p (Stratagene) with a protein concentration of 1–2 µM and 10 µM inhibitor as described previously, [25]. […] Recombinant human kinases for DSF screening were prepared by SGC using published methods, [36].

The next assay concerns the target T2, PKN1 (Homo sapiens, UniProt Q16512).
T2 construct: purchased Nanosyn (enzymatic panel); SGC in-house recombinant human kinases (DSF panel); Invitrogen (ALK1-6)
How it is done:
as §1

For another assay, the target named is T3, PIM2 (Homo sapiens, UniProt Q9P1W9).
T3 construct: purchased Nanosyn (enzymatic panel); SGC in-house recombinant human kinases (DSF panel); Invitrogen (ALK1-6)
T3 sequence (Q9P1W9 whole entry): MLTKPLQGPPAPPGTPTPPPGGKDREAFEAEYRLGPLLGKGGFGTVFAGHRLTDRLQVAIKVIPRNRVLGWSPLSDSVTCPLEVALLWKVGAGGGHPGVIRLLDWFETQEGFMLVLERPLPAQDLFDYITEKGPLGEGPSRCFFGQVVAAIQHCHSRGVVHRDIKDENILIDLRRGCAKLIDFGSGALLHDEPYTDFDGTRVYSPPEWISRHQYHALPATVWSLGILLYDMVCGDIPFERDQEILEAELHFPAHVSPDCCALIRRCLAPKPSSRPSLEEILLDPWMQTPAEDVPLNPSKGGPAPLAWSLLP
How it is done: as §1

The target in a further assay is T4, MRCKβ (Homo sapiens, UniProt Q9Y5S2).
T4 construct: purchased Nanosyn (enzymatic panel); SGC in-house recombinant human kinases (DSF panel); Invitrogen (ALK1-6)
T4 sequence (Q9Y5S2 whole entry): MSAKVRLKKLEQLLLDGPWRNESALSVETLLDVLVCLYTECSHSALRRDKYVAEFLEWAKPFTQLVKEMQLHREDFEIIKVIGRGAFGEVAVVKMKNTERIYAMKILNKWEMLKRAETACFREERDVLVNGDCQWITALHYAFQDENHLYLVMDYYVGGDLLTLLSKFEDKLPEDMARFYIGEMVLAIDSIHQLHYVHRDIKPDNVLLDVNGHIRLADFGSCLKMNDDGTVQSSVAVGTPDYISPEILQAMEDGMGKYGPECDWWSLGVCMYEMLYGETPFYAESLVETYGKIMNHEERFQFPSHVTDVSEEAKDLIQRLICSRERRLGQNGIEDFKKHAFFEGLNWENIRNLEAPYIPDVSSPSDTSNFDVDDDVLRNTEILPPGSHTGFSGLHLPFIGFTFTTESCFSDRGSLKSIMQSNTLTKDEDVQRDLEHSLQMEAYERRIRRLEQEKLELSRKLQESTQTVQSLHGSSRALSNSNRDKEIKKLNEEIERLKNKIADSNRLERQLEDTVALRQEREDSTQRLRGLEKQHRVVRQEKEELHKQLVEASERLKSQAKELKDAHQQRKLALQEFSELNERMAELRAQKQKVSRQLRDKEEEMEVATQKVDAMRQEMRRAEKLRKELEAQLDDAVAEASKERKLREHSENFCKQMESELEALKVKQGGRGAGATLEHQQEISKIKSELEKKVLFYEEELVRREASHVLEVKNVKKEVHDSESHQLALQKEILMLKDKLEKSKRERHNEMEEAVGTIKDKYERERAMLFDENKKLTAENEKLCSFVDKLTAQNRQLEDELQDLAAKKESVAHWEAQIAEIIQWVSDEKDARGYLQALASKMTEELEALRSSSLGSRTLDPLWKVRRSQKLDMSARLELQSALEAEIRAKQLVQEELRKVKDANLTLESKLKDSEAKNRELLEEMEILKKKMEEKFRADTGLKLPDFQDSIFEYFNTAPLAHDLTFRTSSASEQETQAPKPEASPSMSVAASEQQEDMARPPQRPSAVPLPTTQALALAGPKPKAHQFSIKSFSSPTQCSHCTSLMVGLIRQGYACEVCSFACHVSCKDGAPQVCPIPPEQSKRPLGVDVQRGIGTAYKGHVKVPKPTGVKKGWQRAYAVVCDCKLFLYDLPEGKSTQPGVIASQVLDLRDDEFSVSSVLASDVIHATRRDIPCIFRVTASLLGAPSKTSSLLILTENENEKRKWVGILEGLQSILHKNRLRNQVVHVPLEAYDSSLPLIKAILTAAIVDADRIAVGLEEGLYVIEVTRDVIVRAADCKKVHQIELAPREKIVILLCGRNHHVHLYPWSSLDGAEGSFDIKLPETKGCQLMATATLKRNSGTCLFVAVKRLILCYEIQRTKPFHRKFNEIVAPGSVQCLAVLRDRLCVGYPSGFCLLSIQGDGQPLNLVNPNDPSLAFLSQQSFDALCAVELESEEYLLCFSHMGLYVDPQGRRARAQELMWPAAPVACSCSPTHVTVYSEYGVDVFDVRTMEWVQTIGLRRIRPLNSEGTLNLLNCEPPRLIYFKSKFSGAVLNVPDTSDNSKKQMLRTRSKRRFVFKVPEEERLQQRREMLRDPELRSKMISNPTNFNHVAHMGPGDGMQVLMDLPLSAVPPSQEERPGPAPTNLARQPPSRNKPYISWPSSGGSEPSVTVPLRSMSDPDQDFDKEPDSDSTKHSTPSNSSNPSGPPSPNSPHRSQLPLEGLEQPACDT
How it is done: as §1

A further assay addresses T5, PLK4 (Homo sapiens, UniProt O00444).
T5 construct: purchased Nanosyn (enzymatic panel); SGC in-house recombinant human kinases (DSF panel); Invitrogen (ALK1-6)
T5 sequence (O00444 1-970): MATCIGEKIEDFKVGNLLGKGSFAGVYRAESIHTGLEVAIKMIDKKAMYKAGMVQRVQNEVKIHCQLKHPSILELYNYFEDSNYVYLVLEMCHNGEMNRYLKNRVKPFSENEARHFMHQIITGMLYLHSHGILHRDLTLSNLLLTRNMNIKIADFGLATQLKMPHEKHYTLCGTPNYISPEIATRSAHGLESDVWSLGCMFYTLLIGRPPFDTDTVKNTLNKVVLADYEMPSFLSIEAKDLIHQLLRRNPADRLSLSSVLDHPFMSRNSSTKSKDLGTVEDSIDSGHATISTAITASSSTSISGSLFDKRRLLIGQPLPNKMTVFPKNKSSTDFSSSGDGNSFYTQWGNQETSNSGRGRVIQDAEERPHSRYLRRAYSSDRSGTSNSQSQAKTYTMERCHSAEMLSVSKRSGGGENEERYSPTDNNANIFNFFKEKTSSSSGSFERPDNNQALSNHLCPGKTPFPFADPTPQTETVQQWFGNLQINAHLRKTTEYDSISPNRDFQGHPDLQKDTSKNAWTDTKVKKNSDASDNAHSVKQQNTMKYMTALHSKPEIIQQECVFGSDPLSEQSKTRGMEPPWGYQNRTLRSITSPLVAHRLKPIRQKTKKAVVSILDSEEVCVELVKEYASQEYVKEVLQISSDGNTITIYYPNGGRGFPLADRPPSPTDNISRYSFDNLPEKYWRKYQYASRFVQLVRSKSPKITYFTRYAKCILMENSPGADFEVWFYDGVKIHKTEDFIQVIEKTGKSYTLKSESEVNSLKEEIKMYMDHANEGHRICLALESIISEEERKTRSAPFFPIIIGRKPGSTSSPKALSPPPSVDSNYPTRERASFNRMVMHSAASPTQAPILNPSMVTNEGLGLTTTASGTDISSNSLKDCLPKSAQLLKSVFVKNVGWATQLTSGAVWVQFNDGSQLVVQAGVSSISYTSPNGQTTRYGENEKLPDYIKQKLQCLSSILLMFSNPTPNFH
As for the experimental part:
as §1

The next assay deals with T6, SLK (Homo sapiens, UniProt Q9H2G2).
T6 construct: purchased Nanosyn (enzymatic panel); SGC in-house recombinant human kinases (DSF panel); Invitrogen (ALK1-6)
T6 sequence (Q9H2G2 whole entry): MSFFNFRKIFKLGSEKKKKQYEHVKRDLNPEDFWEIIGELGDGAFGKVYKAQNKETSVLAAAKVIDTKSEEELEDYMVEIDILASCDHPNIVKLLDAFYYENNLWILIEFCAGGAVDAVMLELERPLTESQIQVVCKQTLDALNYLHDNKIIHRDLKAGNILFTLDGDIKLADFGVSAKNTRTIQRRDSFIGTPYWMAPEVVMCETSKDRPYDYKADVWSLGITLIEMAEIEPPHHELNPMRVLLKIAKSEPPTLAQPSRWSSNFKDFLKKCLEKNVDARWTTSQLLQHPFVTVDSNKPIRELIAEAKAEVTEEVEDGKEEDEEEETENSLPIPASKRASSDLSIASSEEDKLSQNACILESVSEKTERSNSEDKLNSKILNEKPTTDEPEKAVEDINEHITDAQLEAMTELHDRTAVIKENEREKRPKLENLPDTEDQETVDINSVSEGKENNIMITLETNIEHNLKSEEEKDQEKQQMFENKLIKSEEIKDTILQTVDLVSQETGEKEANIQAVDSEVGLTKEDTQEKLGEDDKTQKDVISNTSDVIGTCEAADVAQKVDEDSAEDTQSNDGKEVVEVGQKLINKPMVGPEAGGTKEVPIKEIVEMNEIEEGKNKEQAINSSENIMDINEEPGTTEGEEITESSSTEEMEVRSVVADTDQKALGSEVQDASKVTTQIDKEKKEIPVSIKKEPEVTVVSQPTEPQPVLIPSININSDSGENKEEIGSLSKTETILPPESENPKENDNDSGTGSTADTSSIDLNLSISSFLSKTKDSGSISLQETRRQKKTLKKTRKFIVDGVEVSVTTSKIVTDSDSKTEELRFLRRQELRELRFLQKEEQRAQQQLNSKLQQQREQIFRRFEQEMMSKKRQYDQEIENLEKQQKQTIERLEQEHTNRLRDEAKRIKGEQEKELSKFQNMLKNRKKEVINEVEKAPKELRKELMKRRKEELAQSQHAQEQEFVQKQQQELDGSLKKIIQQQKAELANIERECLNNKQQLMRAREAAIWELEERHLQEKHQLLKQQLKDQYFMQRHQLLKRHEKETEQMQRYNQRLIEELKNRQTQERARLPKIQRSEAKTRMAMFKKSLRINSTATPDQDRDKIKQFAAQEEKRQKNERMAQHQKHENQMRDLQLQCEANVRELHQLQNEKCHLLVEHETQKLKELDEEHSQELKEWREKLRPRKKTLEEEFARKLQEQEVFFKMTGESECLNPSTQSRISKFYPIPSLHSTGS
How it is done: as §1

A further assay deals with T7, ActRIIA (Homo sapiens, UniProt P27037).
T7 construct: purchased Nanosyn (enzymatic panel); SGC in-house recombinant human kinases (DSF panel); Invitrogen (ALK1-6)
How it is done: as §1

Another assay concerns the target T8, ALK4 (Homo sapiens, UniProt P36896).
T8 construct: purchased Invitrogen
T8 sequence (P36896 24-505): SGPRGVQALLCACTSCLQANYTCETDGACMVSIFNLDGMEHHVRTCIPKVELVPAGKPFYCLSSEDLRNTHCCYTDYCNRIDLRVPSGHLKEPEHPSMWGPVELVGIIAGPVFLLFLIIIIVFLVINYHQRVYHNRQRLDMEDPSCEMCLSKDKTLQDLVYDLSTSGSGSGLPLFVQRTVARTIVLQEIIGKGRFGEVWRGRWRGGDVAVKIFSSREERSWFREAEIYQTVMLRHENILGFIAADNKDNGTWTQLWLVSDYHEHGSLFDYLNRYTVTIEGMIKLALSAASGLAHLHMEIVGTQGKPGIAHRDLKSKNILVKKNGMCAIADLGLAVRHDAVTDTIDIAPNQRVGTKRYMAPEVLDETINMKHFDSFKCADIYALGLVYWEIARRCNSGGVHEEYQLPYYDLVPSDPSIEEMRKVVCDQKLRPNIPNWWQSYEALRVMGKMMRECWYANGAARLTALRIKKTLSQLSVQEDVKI
How it is done:
as §1

A further assay concerns the target T9, PIM3 (Homo sapiens, UniProt Q86V86).
T9 construct: purchased Nanosyn (enzymatic panel); SGC in-house recombinant human kinases (DSF panel); Invitrogen (ALK1-6)
How it is done: as §1

T1 sequence (Q9P289 whole entry): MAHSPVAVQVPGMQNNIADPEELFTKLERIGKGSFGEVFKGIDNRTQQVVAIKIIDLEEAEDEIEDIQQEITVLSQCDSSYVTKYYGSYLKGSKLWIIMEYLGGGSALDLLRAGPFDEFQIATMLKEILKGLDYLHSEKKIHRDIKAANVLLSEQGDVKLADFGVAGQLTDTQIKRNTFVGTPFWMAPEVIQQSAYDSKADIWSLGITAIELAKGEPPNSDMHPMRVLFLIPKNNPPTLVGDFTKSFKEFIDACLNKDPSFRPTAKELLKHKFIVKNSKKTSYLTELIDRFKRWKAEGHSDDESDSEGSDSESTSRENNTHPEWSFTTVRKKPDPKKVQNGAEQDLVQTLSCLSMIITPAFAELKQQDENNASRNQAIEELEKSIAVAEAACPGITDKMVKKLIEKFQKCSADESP
T2 sequence (Q16512 whole entry): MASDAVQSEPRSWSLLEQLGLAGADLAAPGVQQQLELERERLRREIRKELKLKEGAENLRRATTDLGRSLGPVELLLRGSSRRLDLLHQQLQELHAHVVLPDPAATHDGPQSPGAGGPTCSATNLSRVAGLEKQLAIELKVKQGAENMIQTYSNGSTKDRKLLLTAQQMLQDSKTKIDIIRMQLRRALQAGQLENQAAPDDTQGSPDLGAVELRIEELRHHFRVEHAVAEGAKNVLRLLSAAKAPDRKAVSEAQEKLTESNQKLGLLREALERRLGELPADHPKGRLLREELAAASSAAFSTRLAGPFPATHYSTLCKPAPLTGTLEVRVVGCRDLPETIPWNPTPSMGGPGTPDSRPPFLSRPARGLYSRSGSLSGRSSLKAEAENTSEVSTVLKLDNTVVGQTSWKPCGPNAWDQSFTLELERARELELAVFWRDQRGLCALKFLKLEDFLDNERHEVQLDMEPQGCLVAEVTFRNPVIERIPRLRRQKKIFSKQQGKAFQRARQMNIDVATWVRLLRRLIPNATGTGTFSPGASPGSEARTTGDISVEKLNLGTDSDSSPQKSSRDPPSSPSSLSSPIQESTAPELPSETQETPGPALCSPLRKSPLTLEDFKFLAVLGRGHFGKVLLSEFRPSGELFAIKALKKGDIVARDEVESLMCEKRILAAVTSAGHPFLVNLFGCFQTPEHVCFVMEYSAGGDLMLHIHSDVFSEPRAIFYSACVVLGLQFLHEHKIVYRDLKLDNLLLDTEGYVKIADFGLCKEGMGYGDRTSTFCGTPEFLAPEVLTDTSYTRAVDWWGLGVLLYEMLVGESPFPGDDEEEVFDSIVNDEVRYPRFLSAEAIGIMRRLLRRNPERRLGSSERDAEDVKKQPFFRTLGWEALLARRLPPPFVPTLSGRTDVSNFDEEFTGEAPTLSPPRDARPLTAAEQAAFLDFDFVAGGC

For `COc1cc(-c2cc(-c3cccc(O)c3)cnc2N)cc(OC)c1OC` [K02288, 3-[6-amino-5-(3,4,5-trimethoxy-phenyl)-pyridin-3-yl]-phenol], the ΔTm at 10 µM at MST4 was determined as 0.2 °C; at PKN1 it was 0.5 °C; at PIM2, 0.1 °C; at MRCKβ, 0.4 °C; at PLK4 it was 0 °C; at SLK it was 1 °C. The results for the ΔTm at 10 µM at ActRIIA, at ALK4 and at PIM3 were 8.3 °C, 8.2 °C and -0.2 °C, respectively.
Consider `c1cc(-c2cnn3cc(-c4ccc(OCCN5CCCCC5)cc4)cnc23)ccn1` [Dorsomorphin], for which the ΔTm at 10 µM at MST4 was determined as 0.7 °C; at PKN1, 2.3 °C; at PIM2, 0.6 °C; at MRCKβ it was 0 °C; at PLK4, 4.2 °C; at SLK it was 1.6 °C. Moreover, the ΔTm at 10 µM at ActRIIA came to 6.1 °C; at ALK4 it was 6.1 °C; at PIM3, 0.6 °C.
As for `c1ccc2c(-c3cnn4cc(-c5ccc(N6CCNCC6)cc5)cnc34)ccnc2c1` [LDN-193189], the ΔTm at 10 µM is 0.8 °C at MST4; 2.3 °C at PKN1; -1.3 °C on PIM2; 0.6 °C on MRCKβ; 3.7 °C at PLK4; 1.2 °C on SLK. Besides, the ΔTm at 10 µM on ActRIIA was 8.6 °C; on ALK4, 11 °C; at PIM3 it was -0.2 °C.
